Assay results as given in patent EP0840602B1, “USE OF A RETINOID FOR PREPARING AN ANTIBACTERIAL DRUG” (Pierre Fabre Dermo-Cosmetique, priority 1995, dated 1997).

Columns and labels:
staphylococcus aureus = settings: from reference 1 (Thabaut and Meyran 1989); cited from earlier work
St. epidermis [1] = assay: Minimal bactericidal concentration (CMB), subculture of the microplate on trypticase soy agar; format: cell-based; settings: subculture 24-48 h at 32° C, second line of each compound in the table
Method: (§1) • . Gélose Trypticase soja (Biomérieux)
(§2) Les solutions-mère des produits cités ci-dessous ont été préparées dans l'alcool puis dissoutes dans l'eau distillée stérile de façon à être en final à 200 µg/ml et environ 10° éthanolique (sous lumière jaune). • . Rétinal all Trans • . Rétinal 9 Cis (Sigma R 5754 - lot 62 H 84 43) • . Rétinal 13 Cis (Sigma R 6256 - lot 81 H 8440)
(§3) Le repiquage de la microplaque A sur une gélose trypticase soja préalablement coulée, permet après culture de 24-48 h à 32° C, la lecture de la concentration CMB = plus petite concentration ne permettant pas de croissance sur la gélose.

St. aureus [2] = assay: Minimal inhibitory concentration (CMI), broth microdilution in microplates; format: cell-based, Staphylococcus aureus; settings: 10^6 germes par ml, 24 h at 32° C, first line of each compound in the table
Method: (§4) • Staphylococcus aureus 6538 P • Staphylococcus aureus de pathologies cutanées isolées de l'hôpital Rangueil Toulouse - (France)
• . Bouillon Trypticase soja (Biomérieux)
as §2
(§5) Une distribution de 100 µl de bouillon Trypticase soja est réalisée dans chaque microcupule de la microplaque stérile (A).
(§6) Un témoin stérilité du milieu et un autre témoin de la vigueur de la souche sont réalisés en parallèle sur la microplaque.
(§7) L'ensemencement de la microplaque (A) a lieu sous la hotte après préparation de l'inoculum bactérien comme suit :
(§8) Les souches ayant été préalablement repiquées la veille sur gélose Trypticase soja, un inoculum 10^8 germes/ml est dispersé dans l'eau distillée stérile puis agité au vortex.
(§9) Les billes de verre assurant une bonne dispersion des souches, la mesure de la densité permet de préparer un inoculum adéquat par rapport à un étalonnage pré-établi et validé.
(§10) La répartition de la souche a lieu dans une deuxième microplaque (B) stérile par distribution de 100 µl d'inoculum par microcupule.
(§11) L'ensemencement a lieu par un repiquage de la microplaque (B) vers la microplaque (A), il se réalise ainsi une dilution au 1/100 de l'inoculum : la microplaque A contenant 10^6 germes par ml, peut être mise à l'étuve 24 h à 32° C.
(§12) La lecture de la plus grande dilution donnant lieu à une clarté identique au témoin stérilité du milieu, constitue la concentration minimale inhibitrice.

St. epidermis [3] = assay: as above; format: cell-based; settings: 10^6 germes par ml, 24 h at 32° C, first line of each compound in the table
Method: as §2, §5, §6, §7, §8, §9, §10, §11, §12

St. aureus [4] = assay: Minimal bactericidal concentration (CMB), subculture of the microplate on trypticase soy agar; format: cell-based, Staphylococcus aureus; settings: subculture 24-48 h at 32° C, second line of each compound in the table
Method: as §4, §1, §2, §3

St. aureus 6538 P = assay: Bactericidal kinetics and D. value; format: cell-based, Staphylococcus aureus
Method: Le niveau d'efficacité, de l'ordre du microgramme, a été prouvé pour des souches de staphylocoques plurirésistantes notamment aux aminosides, tétracyclines et macrolides. L'efficacité bactéricide a pu être chiffrée. En effet, le rétinal à 0,1% a une D. value (temps nécessaire pour faire chuter la population du nombre de germes) sur Staphylococcus aureus 6538 P de 14,8 minutes avec un coefficient de corrélation de 0,999 en ce qui concerne la droite de régression linéaire reliant la population de germes au temps de contact germe-rétinaldéhyde.
La D. value du Rétinal à 0,1 % P/V dans une solution éthanolique à 20 % V/V a été recherchée sur St. aureus 6538 P.
La cinétique des prélèvements microbiens a été réalisée aux temps 15', 30', 60', 4h et 6h. L'inoculum de départ étant de 1,0.10^4 germes par ml, la neutralisation se réalise d'après les temps cités dans du Bouillon Trypticase Soja, supplémenté par 10 % de Tween 80. Le neutralisant a été validé au préalable.

[5] = test system: adhésion des Gram positifs aux cornéocytes; assay: Adhesion of staphylococci to corneocytes according to Cole and Silverberg (1986); format: cell-based; settings: doses infrabactériostatiques
Text: Le rétinaldéhyde et ses isomères dont le 9 et le 13 cis-rétinaldéhyde possèdent une activité ciblée sur les Gram positifs, en particulier du genre Staphylococcus dont le staphylocoque doré. […] L'efficacité a pu être mise en évidence par le calcul des concentrations minimales inhibitrices et bactéricides sur des souches polyrésistantes issues de prélèvements cutanés isolés en milieu hospitalier et par études de l'adhésion du staphylocoque aux cornéocytes selon Cole et Silverber (1986).
• 1. Thabaut A. et Meyran M. (1989) Activité bactéricide comparée de quatorze antibiotiques sur staphylococcus aureus. Path. Biol. 37 : 321 - 328. • 2. Cole G.W.; Silvergerg N.L (1986) The adherence of staphylococcus aureus to human corneocytes. Arch. Dermatol. 122 : 166 - 169.

CC[C@H]1OC(=O)[C@H](C)[C@@H](O[C@H]2C[C@@](C)(OC)[C@@H](O)[C@H](C)O2)[C@H](C)[C@@H](O[C@@H]2O[C@H](C)C[C@H](N(C)C)[C@H]2O)[C@](C)(O)C[C@@H](C)C(=O)[C@H](C)[C@@H](O)[C@]1(C)O [érythromycine]
temps pour faire chuter la population microbienne de 2 Log 10 (staphylococcus aureus): 48 heures

CC1=C(/C=C/C(C)=C/C=C/C(C)=C\C=O)C(C)(C)CCC1 [RETINAL 13 Cis, 13 cis-rétinaldéhyde]
CMB (St. epidermis [1]): 0,0006% | CMI (St. aureus [2]): 0,0006% | CMI (St. epidermis [3]): 0,0001% | CMB (St. aureus [4]): 0,0025%

CC(C=CC=C(C)C=CC1=C(C)CCCC1(C)C)=CC=O [Rétinal, rétinal]
D. value (St. aureus 6538 P; Rétinal 0,1 % P/V in 20 % V/V ethanolic solution, St. aureus 6538 P, linear regression r = 0,99): 14,8 mn | surviving germs, Temps 15 (St. aureus 6538 P; Rétinal 0,1 % P/V in 20 % V/V ethanolic solution, contact 15', starting inoculum 1,0.10^4 germes par ml): 1,4.10^3 | surviving germs, Temps 30 (St. aureus 6538 P; Rétinal 0,1 % P/V in 20 % V/V ethanolic solution, contact 30', starting inoculum 1,0.10^4 germes par ml): 1,3.10^2 | surviving germs, Temps 60 (St. aureus 6538 P; Rétinal 0,1 % P/V in 20 % V/V ethanolic solution, contact 60', starting inoculum 1,0.10^4 germes par ml): 0 | surviving germs, Temps 4h (St. aureus 6538 P; Rétinal 0,1 % P/V in 20 % V/V ethanolic solution, contact 4h, starting inoculum 1,0.10^4 germes par ml): 0 | surviving germs, Temps 6h (St. aureus 6538 P; Rétinal 0,1 % P/V in 20 % V/V ethanolic solution, contact 6h, starting inoculum 1,0.10^4 germes par ml): 0 | Log, Temps 15 (St. aureus 6538 P; log of surviving germs, Rétinal 0,1 %, contact 15'): 3,15 | Log, Temps 30 (St. aureus 6538 P; log of surviving germs, Rétinal 0,1 %, contact 30'): 2,11 | D. value (temps nécessaire pour faire chuter la population du nombre de germes) (St. aureus 6538 P; rétinal à 0,1%, Staphylococcus aureus 6538 P, coefficient de corrélation 0,999): 14,8 minutes | inhibition de l'adhésion des Gram positifs aux cornéocytes [5]: activité inhibant d'adhésion des Gram positifs aux cornéocytes

CC1=C(/C=C/C(C)=C\C=C\C(C)=C\C=O)C(C)(C)CCC1 [RETINAL 9 Cis, 9 cis-rétinaldéhyde]
CMB (St. epidermis [1]): 0,0006% | CMI (St. aureus [2]): 0,0003% | CMI (St. epidermis [3]): 0,0001% | CMB (St. aureus [4]): 0,0025%

CC1=C(/C=C/C(C)=C/C=C/C(C)=C/C=O)C(C)(C)CCC1 [RETINALDEHYDE ALL TRANS, rétinaldéhyde tout trans]
CMB (St. epidermis [1]): 0,0003% | CMI (St. aureus [2]): 0,0003% | CMI (St. epidermis [3]): 0,0001% | CMB (St. aureus [4]): 0,0012%
